# US20250186475A1, “METHODS OF TREATING MEDICAL CONDITIONS USING ISLATRAVIR OR A RELATED COMPOUND” (ROME Therapeutics, Inc., priority 2022, published 2025)
# Columns and labels:
# [1] = tested on: OVCAR-8 cells; test: Cancer cell viability assay with 3D cell colonies (CellTiter-Glo), OVCAR-8; format: cell-based; conditions: Homo sapiens, OVCAR-8, 168 h; 3D tumorsphere growth, 7 days
# Procedure: (§1) Ovarian cancer cell line SK-OV-3 cells were cultured in McCoy's 5a media containing 10% FBS. Ovarian cancer cell line OVCAR-8 cells were cultured in RPMI media containing 10% FBS. Additional cancer cell lines were cultured in the following media: • Ovarian cancer SW756 cells—L-15 (100% air)+10% FBS • Esophageal cancer TE-1 cells—RPMI-1640+10% FBS • Esophageal cancer KYSE-410 cells—RPMI-1640+5˜10% FBS • Esophageal cancer KYSE-70 cells—RPMI-1640+10% h.i.FBS. • Pharyngeal cancer FaDu cells—MEM+0.01 mM NEAA+10% FBS
# (§2) Cell colony formation was tested using a 3D methylcellulose-based CellTiter-Glo (CTG) viability assay (Cat. No: G7573, Promega). Briefly, cells were inoculated into 96-well plates (at 1,500 cells per well) into a solution of 0.65% methylcellulose in growth media and incubated overnight at 37° C. in 5% CO2. The next day, serially diluted test compound (islatravir) or positive control (cisplatin, Cat. No. 6J015A89, Qilu Pharma) were added at the indicated concentrations, and the cells were incubated for 7 days. On day seven, 100 μL of CTG reagent was added, and the plates were incubated at room temperature for 20 min. Luminescence was read on an Envision Multi Label Reader according to manufacturer's instructions. IC50 values were determined using the following calculation: […]
# [2] = tested on: FaDu cells; test: Cancer cell viability assay with 3D cell colonies (CellTiter-Glo), FaDu; format: cell-based; conditions: Homo sapiens, FaDu, 168 h, 7 days
# Procedure: as §1, §2
# [3] = tested on: interferon-stimulated gene (ISG) expression; test: In vivo decitabine challenge model; design: species or system C57BL/6 mice; conditions: islatravir p.o. 0.6, 2.0, 6.0 mg/kg once daily with decitabine i.p. 5 mg/kg, Day 0 to Day 4
# Procedure: Twenty 9-11 week old C57BL/6 mice were acclimated to the lab for at least 5 days. Islatravir was prepared in a 0.5% methylcellulose solution for p.o. administration. Decitabine (Sigma) was dissolved in sterile PBS (pH 7.4) and dosed within 30 minutes of preparation of the solution. Doses of both islatravir and decitabine were administered once a day, every day from Day 0 to Day 4. On Day 0, mice were split into four groups of five mice and given their first dose of decitabine (i.p., 5 mg/kg) and compound 23. Dosing groups were: [table] Decitabine and islatravir were administered daily from Day 0 to Day 4. All mice were euthanized 1 hour after the last dose administration on Day 4. Spleens, liver, and terminal colon were collected, along with plasma from each animal. The fold changes in interferon-stimulated gene (ISG) expression was calculated by first normalizing to GAPDH gene using the Delta CT method. The CT (gene of interest)—CT (reference gene) was calculated to generate a delta CT for all samples. The fold change was then calculated by taking the […](Delta CT(control)−Delta CT (experimental). The control in this example was the PBS control animal group. The Taqman duplex assay (Thermo Fisher 4331182 and 4448489) was used according to the manufacturer's instructions to determine levels of GAPDH v. IFIT2.
# [4] = tested on: THP1-Dual™ KO-TREX1 cells; test: Cellular assay for altering IFN production in THP1 TREX1 KO cells; format: cell-based; conditions: in the presence of 1 μM 5-aza-2′-deoxycytidine, five days
# Procedure: (§3) THP1-Dual™ KO-TREX1 cells were purchased from Invivogen (cat #thpd-kotrex). The THP1-Dual™ KO-TREX1 cells were cultured in RPMI 1640, 10% heat-inactivated fetal bovine serum, 25 mM HEPES, 10 μg/mL Blasticidin, and 100 μg/mL Zeocin. THP1-Dual™ KO-TREX1 cells were treated with a dose titration of test compound in the presence of 1 μM 5-aza-2′-deoxycytidine (Sigma, cat #189825). Type 1 Interferon and cell viability were assessed after five days of treatment.
# (§4) Stock solution of test compound was prepared in DMSO followed by a three-fold dilution in DMSO. Additional 50× dilution was prepared in cell culture media for each dilution. 10 μL of diluted test compound was then added to a 384-well plate.
# (§5) THP1-Dual™ KO-TREX1 cells were treated with 1 μM 5-aza-2′-deoxycytidine. THP1-Dual™ KO-TREX1 cells (50 μL) were added to each well of the 384-well plate containing test compound titration at 10,000 cells/well. Cells were incubated at 37° C., 5% CO2 in a humidified incubator for five days. On day five, 20 μL of cell supernatant was transferred to a 384-well, white-walled plate, followed by addition to each well of 50 μL of QUANTI-LUC solution containing stabilizer. Luminescence was detected on a plate reader according to manufacturer's instructions. […]
# [5] = tested on: THP1-Dual™ KO-TREX1 cells; test: CellTiter-Glo cell viability in THP1 TREX1 KO cells; format: cell-based; conditions: Homo sapiens, 120 h, in the presence of 1 μM 5-aza-2′-deoxycytidine, five days, read-out: CellTiter-Glo inhibition IC50
# Procedure: as §3, §4
# as §5, with “On day five, 20 μL of cell supernatant was transferred to a 384-well, white-walled plate, followed by addition to each well of 50 μL of QUANTI-LUC solution containing stabilizer.” left out
# The remaining cells were assessed for cell viability by adding 30 μl of CellTiter-Glo (Promega, G9683) solution to each well, and placed on a shaker for 10 minutes at room temperature. Luminescence was detected on a plate reader, according to manufacturer's instructions. […]
# [6] = tested on: TE-1 cells; test: Cancer cell viability assay with 3D cell colonies (CellTiter-Glo), TE-1; format: cell-based; conditions: Homo sapiens, TE-1, 168 h, 7 days
# Procedure: as §1, §2
# [7] = tested on: KYSE-70 cells; test: Cancer cell viability assay with 3D cell colonies (CellTiter-Glo), KYSE-70; format: cell-based; conditions: Homo sapiens, KYSE-70, 168 h, 7 days
# Procedure: as §1, §2
smiles,measurement,setting,value
"C#C[C@]1(CO)O[C@@H](n2cnc3c(N)nc(F)nc32)C[C@@H]1O [Islatravir, (2R,3S,5R)-5-(6-amino-2-fluoro-9H-purin-9-yl)-2-ethynyl-2-(hydroxymethyl)tetrahydrofuran-3-ol]",IC50,[1],1.95 µM
same,IC50,[2],10 to 30 µM
same,change in ISG response,[3],showed the change in ISG response
same,changes in IFN levels (% induction),[4],induction of IFN
same,IC50,[5],> 20 µM
same,IC50,[6],≤ 10 µM
same,IC50,[7],10 to 30 µM
